Experimental data published in BindingDB's records for PubMed 10617681 (Dupont Pharmaceuticals, 2000).

How the values were obtained:
[1] = target: T1, 5-hydroxytryptamine receptor 2C (Homo sapiens, UniProt P28335)
T1 sequence (P28335 whole entry): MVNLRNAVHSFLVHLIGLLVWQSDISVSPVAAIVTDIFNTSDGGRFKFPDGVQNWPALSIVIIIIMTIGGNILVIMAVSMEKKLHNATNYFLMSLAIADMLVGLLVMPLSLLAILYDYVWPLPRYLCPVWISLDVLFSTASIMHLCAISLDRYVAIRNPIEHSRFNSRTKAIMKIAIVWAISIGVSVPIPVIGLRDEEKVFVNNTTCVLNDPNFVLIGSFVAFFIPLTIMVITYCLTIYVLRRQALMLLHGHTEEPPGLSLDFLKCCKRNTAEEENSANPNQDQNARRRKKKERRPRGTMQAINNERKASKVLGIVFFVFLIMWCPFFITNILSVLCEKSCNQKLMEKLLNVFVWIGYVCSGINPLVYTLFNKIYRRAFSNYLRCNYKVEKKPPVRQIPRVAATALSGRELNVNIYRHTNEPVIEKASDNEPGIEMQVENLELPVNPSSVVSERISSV

[2] = target: 5-hydroxytryptamine receptor 2B (Homo sapiens, UniProt P41595)
5-hydroxytryptamine receptor 2B, sequence (P41595 whole entry): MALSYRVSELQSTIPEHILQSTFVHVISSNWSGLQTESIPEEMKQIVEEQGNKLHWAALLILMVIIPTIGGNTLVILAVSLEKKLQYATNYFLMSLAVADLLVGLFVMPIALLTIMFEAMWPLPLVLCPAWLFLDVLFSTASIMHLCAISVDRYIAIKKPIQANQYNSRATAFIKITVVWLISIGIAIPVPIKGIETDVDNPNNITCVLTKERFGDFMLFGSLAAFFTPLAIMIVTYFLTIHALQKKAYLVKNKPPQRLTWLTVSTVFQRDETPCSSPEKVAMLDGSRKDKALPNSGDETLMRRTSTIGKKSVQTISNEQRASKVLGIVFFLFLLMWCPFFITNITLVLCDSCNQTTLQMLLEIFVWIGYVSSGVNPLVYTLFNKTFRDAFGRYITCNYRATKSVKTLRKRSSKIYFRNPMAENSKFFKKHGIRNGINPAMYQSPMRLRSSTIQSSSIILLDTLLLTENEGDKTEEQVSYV

SMILES | Ki [1] [nM] | Ki [2] [nM]
C[C@H](N)Cc1cccc(C(F)(F)F)c1 [Norfenfluramine (+)] | 56 | 27
C[C@@H](N)Cc1cccc(C(F)(F)F)c1 [l-norfenfluramine] | 99 | 65
